Laboratory results: patent US9670223B2, “Compounds with super-aspirin effects” (SOLVOTRIN THERAPEUTICS LTD., priority 2011, dated 2017)

What was measured:
[1] = cited from earlier work; for % Aspirin release: in human plasma, From Reference 7
TxB2 = TxB2 suppression after single oral gavage dose; format: in vivo, cynomolgus monkey; details: Phase 2A, single oral gavage, ST0702 9.6 mg/kg, aspirin 4.2 mg/kg, 1 and 24 hours post dosing
[2] = test system: platelet rich plasma (PRP); assay: Collagen-induced platelet aggregation in platelet rich plasma (light aggregometry); format: cell-based, human
Procedure: (§1) PRP and WP (2.5×10^8 platelets ml^−1) were prepared from blood. Briefly 36 ml whole blood was collected into 4 ml of 3.15% sodium citrate; this was centrifuged at 250 ¥g for 20 min (with gentle acceleration and deceleration). At this point PRP, which had separated from white blood cells and red blood cells, was gently removed. When WP were required this PRP was centrifuged at 700 g for 10 min (with gentle acceleration and deceleration) in the presence of prostacyclin. The platelet-poor plasma (PPP) was removed and the platelet pellet was washed three times with Tyrode's buffer, before being re-suspended in Tyrode's buffer to a concentration of 2.5 ¥108 platelets/ml.
(§2) Platelet aggregation was measured by light aggregometry. […] Aggregation was initiated by the addition of agonists, and monitored by Aggro-Link software for at least 6 min.
(§3) To study the aggregatory potency of ADP, the concentration-response (0.3-10 μM) curves were generated. Collagen at different concentrations (2-5 μg/ml) was also used to induce platelet aggregation. Submaximal concentrations of agonists, i.e. the concentrations that gave approximately 95% of the maximal aggregation were used to study the effects of inhibitors of aggregation. Aspirin and aspirin prodrugs was incubated for various intervals prior to the addition of aggregating agents.
(§4) Eserine (in DMSO, 10 μM, giving a final concentration≦0.25% DMSO, which pilot studies had determined not to affect platelet aggregation) was preincubated with PRP or WP for 5 min in the aggregometer with stirring at 900 r.p.m. before the addition of test compounds (ST0701-05), which were incubated in PRP or WP for a further 10 min prior to the addition of an agonist (10 μM ADP or 5 μg/ml Collagen) to induce platelet aggregation.

59M cells = assay: Tumour cell-induced platelet aggregation (TCIPA), static conditions, 59M; format: cell-based, human; details: for inhibition of TCIPA induced by 59M: static, WP, 300 and 500 μM, 59M 1×10^3/ml
Excerpt: ISAS meanwhile is hydrolysed to aspirin and salicylic acid. […] The structure of platelet-tumor cell aggregates was studied using phase-contrast microscopy (Alonso-Escolano et al., 2004; Jurasz et al., 2001). […] Aliquots of each sample were then taken for phase-contrast microscopy examination using an Olympus CKX41 microscope (Olympus America Inc., […].). Photomicrographs were captured using a digital camera and MicroFire (Olympus America Inc.) software (Alonso-Escolano et al., 2004; Jurasz et al., 2001).

HT1080 cells = assay: Tumour cell-induced platelet aggregation (TCIPA), static conditions, HT1080; format: cell-based, human; details: static, WP, 300 and 500 μM, HT1080 2×10^5/ml
Procedure: Three human tumor cell lines, 59M ovarian adenocarcinoma, Caco-2 colon adenocarcinoma and HT1080 fibrocarcinoma cells, were obtained from the European Cell Culture Collection. Cell lines were cultured as monolayers in 75 ml culture flasks at 37° C. in a humidified atmosphere with 5% CO2. 59M cells and HT1080 were cultured in Dulbecco's […] (DMEM) supplemented with 10% fetal bovine serum (FBS) and gentamycin (0.05 mg/ml), penicillin (0.06 mg/ml), and streptomycin (0.01 mg/ml). Caco-2 cell line was cultured in Minimum Essential Medium (MEM) supplemented with 20% FBS and the same antibiotics as above. The cells were supplied with fresh medium and subcultured three times each week.
Washed platelet suspensions (2.5×10^11 platelets 1^−1) were prepared from blood an mixed with the anticoagulant sodium citrate (0.315% final concentration).
The interactions between platelets and tumor cells were measured by light aggregometry (Alonso-Escolano et al., 2004; Jurasz et al., 2001b; Radomski et al., 1991). Briefly, washed platelet samples (2.5×10^8/ml) were placed in an eight channel PAP 8 aggregometer (BIO/DATA CORPORATION, Horsham, Pa., U.S.A.) and incubated for 10 min at 37° C., with stirring at 900 r.p.m., prior to the addition of aggregating agents. […] TCIPA was initiated by the addition of cancer cells, and monitored by Aggro-Link software for at least 30 min. For experiments using inhibitors, aggregation was initiated after 10 min preincubation with these compounds.
To study the ability of the aspirin pro-drugs to inhibit TCIPA in WP cancer cell lines such as HT1080 cells (2×10^5/ml), CaCo2 cells (1.5×10^3/ml) or 59M cells (1×10^3/ml) were used in the presence or absence of aspirin nicotinate (ST0702), ISAS, orthonitrate and metanitrate at 300 and 500 μM. Platelet aggregation was initiated in washed platelets (WP) using HT1080 cells (2×10^5/ml), CaCo2 cells (1.5×10^3/ml) or 59M cells (1×10^3/ml). In addition, regular aspirin (300 and 500 uM) was used as control. Results were expressed in percent changes in maximal light transmission, with 100% representing light transmission of platelet medium alone. ST0702 is hydrolyzed by plasma esterases along two pathways liberating both aspirin and 5-nicotinate salicylate (ST0702 salicylate)(metabolite). The latter is further processed to isosorbide-5-nicotinate and eventually to nicotinic acid. The orthonitrate and metanitrate compounds liberate aspirin and nitric oxide (NO). ISAS meanwhile is hydrolysed to aspirin and salicylic acid. Aspirin (300 and 500 μM) was used in control experiments. Results were expressed in percent changes in maximal light transmission, with 100% representing light transmission of platelet medium alone. Further experiments were performed with ST0702 salicylate (500 μM).

[3] = test system: platelet rich plasma (PRP); assay: ADP-induced platelet aggregation in PRP; format: cell-based, human; details: ADP 10 μM, PRP; for effect of ODQ pretreatment on inhibition of ADP induced aggregation: ODQ 10 μM, compounds 100 μM
Procedure: as §1, §2, §3, §4
1H-[1,2,4]Oxadiazolo[4,3-a]quinoxalin-1-one (ODQ, dissolved in 100% DMSO, used at a final concentration of 10 μM, which gave a final concentration not more than 0.25% DMSO) was preincubated with PRP or WP for 5 min in the aggregometer with stirring at 900 r.p.m. before the addition of test compounds (ST0701-05), which were incubated in PRP or WP for a further 10 min prior to the addition of an agonist (10 μM ADP or 5 μg/ml collagen) to induce platelet aggregation.
Eserine (10 μM) was incubated with PRP for 5 min in the aggregometer with stirring at 900 r.p.m. before the addition of test compound ST0702 salicylate (500 μM), which was incubated in PRP for a further 10 min prior to the addition of the agonist ADP (10 μM) to induce platelet aggregation.

[4] = 200 μM in PRP, collagen 5 μg/ml

Compound	% Aspirin release [1]	TxB2 suppression (TxB2 levels as percentage of baseline), in words (TxB2)	effect of eserine on inhibition of collagen-induced aggregation in PRP ([2]; compounds 300 μM, physostigmine (eserine) 10 μM)	inhibition of TCIPA induced by 59M (59M cells)	inhibition of TCIPA induced by 59M (59M cells; listed as aspirin)	inhibition of TCIPA induced by HT1080 (HT1080 cells)	inhibition of TCIPA induced by HT1080 (HT1080 cells; listed as aspirin)	inhibition of ADP (10 μM) induced aggregation in PRP, comparison in words [3]	effect of ODQ pretreatment on inhibition of ADP induced aggregation [3]	aspirin released in vitro ([1]; human plasma solution / in-vitro, of available (stoichiometric) aspirin, listed as ISANA)	inhibition of aggregation following 0-5 min preincubation [2, 4]	preincubation time at which inhibition is maximal [2, 4]	effect on TCIPA when tumour cells were preincubated with compound (59M cells; 59M cells preincubated)
CC(=O)Oc1ccccc1C(=O)O [Aspirin]	100%	effective	did not exert significant effects	did not exert any significant effect	did not exert a significant effect	did not exert any significant effect	did not exert a significant effect	consistently less inhibition of aggregation than ST0701/02	increased the inhibition	–	–	–	–
CC(=O)Oc1ccccc1C(=O)O[C@H]1CO[C@H]2[C@@H]1OC[C@H]2OC(=O)c1cccnc1 [ST0702, isosorbide-2-aspirinate-5-nicotinate]	30-45%	effective	–	consistently inhibited TCIPA	–	consistently inhibited TCIPA	–	more efficacious than aspirin	increased the inhibition	40%	No significant inhibition	15 to 20 min	no effect on TCIPA
